Here are results for seven cell lines from the supplement of paper PMC10307832.

Test in all cases: relative viability (nuclei count vs DMSO), 5 days (fraction); higher = more cells survive
Compound in assay [1]: Nc1nc2[nH]cc(CCc3ccc(C(=O)N[C@@H](CCC(=O)O)C(=O)O)cc3)c2c(=O)[nH]1 [Pemetrexed] + CC(C)C[C@H](NC(=O)[C@H](Cc1ccccc1)NC(=O)c1cnccn1)B(O)O [Bortezomib] (partner 0.002 µM)
The method, boiled down:
(§1)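 Five library-drug doses in √10 steps were combined with a fixed anchor-drug dose, or a single drug was given alone, by pin tool to lung cancer cell lines in 1536-well plates the day after seeding. Nuclei were stained and counted after 5 days. Relative viability is the nuclei count in treated wells over that in vehicle wells, taken as the median of duplicate plates.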

Compound in assay [2]: Nc1nc2[nH]cc(CCc3ccc(C(=O)N[C@@H](CCC(=O)O)C(=O)O)cc3)c2c(=O)[nH]1 [Pemetrexed] + C[C@@H](Oc1cc(-c2cnn(C3CCNCC3)c2)cnc1N)c1c(Cl)ccc(F)c1Cl [Crizotinib] (partner 1 µM)
The method, boiled down: as §1

Compound in assay [3]: Nc1nc2[nH]cc(CCc3ccc(C(=O)N[C@@H](CCC(=O)O)C(=O)O)cc3)c2c(=O)[nH]1 [Pemetrexed] + Cc1nc(NC(=O)N2CCC[C@H]2C(N)=O)sc1-c1ccnc(C(C)(C)C(F)(F)F)c1 [Alpelisib] (partner 2 µM)
The method, boiled down:
as §1

Compound in assay [4]: Nc1nc2[nH]cc(CCc3ccc(C(=O)N[C@@H](CCC(=O)O)C(=O)O)cc3)c2c(=O)[nH]1 [Pemetrexed] + Cc1nc(Nc2ncc(C(=O)Nc3c(C)cccc3Cl)s2)cc(N2CCN(CCO)CC2)n1 [Dasatinib] (partner 0.075 µM)
A digest of the protocol:
as §1

For NCI-H520, the relative viability in assay [1] (first compound 0.002 µM) came out at 0.29; in assay [1] (first compound 0.006325 µM), 0.64; in assay [1] (first compound 0.02 µM), 0.542; in assay [1] (first compound 0.06325 µM) it was 0.526; in assay [1] (first compound 0.2 µM), 0.395; in assay [2] (first compound 0.002 µM), 0.776. Also, the relative viability in assay [2] (first compound 0.006325 µM) amounted to 0.679; in assay [2] (first compound 0.02 µM), 1.08; in assay [2] (first compound 0.06325 µM), 0.969; in assay [2] (first compound 0.2 µM), 0.79; in assay [3] (first compound 0.002 µM) it was 0.92; in assay [3] (first compound 0.006325 µM) it was 0.828. Also, the relative viability in assay [3] (first compound 0.02 µM) was 0.948; in assay [3] (first compound 0.06325 µM), 0.823; in assay [3] (first compound 0.2 µM), 0.697; in assay [4] (first compound 0.002 µM), 0.235; in assay [4] (first compound 0.006325 µM), 0.224; in assay [4] (first compound 0.02 µM), 0.208. For the same cell line, the relative viability came to 0.203 in assay [4] (first compound 0.06325 µM) and 0.235 in assay [4] (first compound 0.2 µM).

With NCI-H650, the relative viability in assay [1] (first compound 0.002 µM) amounted to 0.67; in assay [1] (first compound 0.006325 µM) it was 0.828; in assay [1] (first compound 0.02 µM) it was 0.748; in assay [1] (first compound 0.06325 µM) it was 0.853; in assay [1] (first compound 0.2 µM), 0.866; in assay [2] (first compound 0.002 µM), 0.698. Moreover, the relative viability is 0.725 in assay [2] (first compound 0.006325 µM); 0.66 in assay [2] (first compound 0.02 µM); 0.762 in assay [2] (first compound 0.06325 µM); 0.696 in assay [2] (first compound 0.2 µM); 1.17 in assay [3] (first compound 0.002 µM); 0.999 in assay [3] (first compound 0.006325 µM). Moreover, the relative viability came out at 1.11 in assay [3] (first compound 0.02 µM); 0.956 in assay [3] (first compound 0.06325 µM); 1.09 in assay [3] (first compound 0.2 µM); 0.408 in assay [4] (first compound 0.002 µM); 0.469 in assay [4] (first compound 0.006325 µM); 0.431 in assay [4] (first compound 0.02 µM). In addition, the figures for the relative viability in assay [4] (first compound 0.06325 µM) and in assay [4] (first compound 0.2 µM) were 0.444 and 0.481, respectively.

COR-L 105: the relative viability came to 0.842 in assay [1] (first compound 0.002 µM); 0.704 in assay [1] (first compound 0.006325 µM); 1.05 in assay [1] (first compound 0.02 µM); 0.924 in assay [1] (first compound 0.06325 µM); 0.783 in assay [1] (first compound 0.2 µM); 0.78 in assay [2] (first compound 0.002 µM). For the same cell line, the relative viability is 0.75 in assay [2] (first compound 0.006325 µM); 0.895 in assay [2] (first compound 0.02 µM); 0.88 in assay [2] (first compound 0.06325 µM); 0.75 in assay [2] (first compound 0.2 µM); 0.93 in assay [3] (first compound 0.002 µM); 0.708 in assay [3] (first compound 0.006325 µM). Further, the relative viability came out at 1.08 in assay [3] (first compound 0.02 µM); 0.891 in assay [3] (first compound 0.06325 µM); 0.909 in assay [3] (first compound 0.2 µM); 0.349 in assay [4] (first compound 0.002 µM); 0.216 in assay [4] (first compound 0.006325 µM); 0.399 in assay [4] (first compound 0.02 µM). The results for the relative viability in assay [4] (first compound 0.06325 µM) and in assay [4] (first compound 0.2 µM) were 0.363 and 0.398, respectively.

NCI-H1755: the relative viability in assay [1] (first compound 0.002 µM) worked out at 0.819; in assay [1] (first compound 0.006325 µM), 0.952; in assay [1] (first compound 0.02 µM), 1.04; in assay [1] (first compound 0.06325 µM), 1.01; in assay [1] (first compound 0.2 µM), 0.867; in assay [2] (first compound 0.002 µM), 0.787. Besides, the relative viability in assay [2] (first compound 0.006325 µM) was 0.814; in assay [2] (first compound 0.02 µM), 0.897; in assay [2] (first compound 0.06325 µM), 0.973; in assay [2] (first compound 0.2 µM) it was 0.78; in assay [3] (first compound 0.002 µM) it was 0.828; in assay [3] (first compound 0.006325 µM), 0.935. Further, the relative viability in assay [3] (first compound 0.02 µM) was determined as 0.923; in assay [3] (first compound 0.06325 µM) it was 0.926; in assay [3] (first compound 0.2 µM), 0.862; in assay [4] (first compound 0.002 µM) it was 0.397; in assay [4] (first compound 0.006325 µM) it was 0.409; in assay [4] (first compound 0.02 µM), 0.448. Moreover, the relative viability in assay [4] (first compound 0.06325 µM) came out at 0.436; in assay [4] (first compound 0.2 µM), 0.379.

NCI-H2085: the relative viability in assay [1] (first compound 0.002 µM) was 1.01; in assay [1] (first compound 0.006325 µM), 1.19; in assay [1] (first compound 0.02 µM), 1.04; in assay [1] (first compound 0.06325 µM), 1.09; in assay [1] (first compound 0.2 µM), 1.05; in assay [2] (first compound 0.002 µM), 0.96. Also, the relative viability in assay [2] (first compound 0.006325 µM) came out at 0.869; in assay [2] (first compound 0.02 µM) it was 0.752; in assay [2] (first compound 0.06325 µM), 0.896; in assay [2] (first compound 0.2 µM), 0.924; in assay [3] (first compound 0.002 µM), 0.91; in assay [3] (first compound 0.006325 µM), 0.952. The relative viability was found to be 1.07 in assay [3] (first compound 0.02 µM); 0.951 in assay [3] (first compound 0.06325 µM); 0.952 in assay [3] (first compound 0.2 µM); 0.23 in assay [4] (first compound 0.002 µM); 0.228 in assay [4] (first compound 0.006325 µM); 0.291 in assay [4] (first compound 0.02 µM). In addition, the relative viability stood at 0.23 in assay [4] (first compound 0.06325 µM) and 0.242 in assay [4] (first compound 0.2 µM).

Regarding NCI-H2023, the relative viability turned out to be 0.519 in assay [1] (first compound 0.002 µM); 0.912 in assay [1] (first compound 0.006325 µM); 1.04 in assay [1] (first compound 0.02 µM); 0.815 in assay [1] (first compound 0.06325 µM); 0.304 in assay [1] (first compound 0.2 µM); 0.632 in assay [2] (first compound 0.002 µM). Further, the relative viability was determined as 0.616 in assay [2] (first compound 0.006325 µM); 0.685 in assay [2] (first compound 0.02 µM); 0.607 in assay [2] (first compound 0.06325 µM); 0.377 in assay [2] (first compound 0.2 µM); 0.573 in assay [3] (first compound 0.002 µM); 0.521 in assay [3] (first compound 0.006325 µM). Besides, the relative viability in assay [3] (first compound 0.02 µM) came to 0.558; in assay [3] (first compound 0.06325 µM), 0.524; in assay [3] (first compound 0.2 µM), 0.289; in assay [4] (first compound 0.002 µM), 0.506; in assay [4] (first compound 0.006325 µM) it was 0.505; in assay [4] (first compound 0.02 µM) it was 0.6. In addition, the results for the relative viability in assay [4] (first compound 0.06325 µM) and in assay [4] (first compound 0.2 µM) were 0.433 and 0.195, respectively.

As to HOP-62, the relative viability in assay [1] (first compound 0.002 µM) came to 0.741; in assay [1] (first compound 0.006325 µM), 0.862; in assay [1] (first compound 0.02 µM), 0.617; in assay [1] (first compound 0.06325 µM) it was 0.722; in assay [1] (first compound 0.2 µM), 0.668; in assay [2] (first compound 0.002 µM), 0.836. Also, the relative viability in assay [2] (first compound 0.006325 µM) was 0.779; in assay [2] (first compound 0.02 µM) it was 0.499; in assay [2] (first compound 0.06325 µM) it was 0.791; in assay [2] (first compound 0.2 µM), 0.933; in assay [3] (first compound 0.002 µM), 0.842; in assay [3] (first compound 0.006325 µM), 0.868. Besides, the relative viability in assay [3] (first compound 0.02 µM) came out at 0.896; in assay [3] (first compound 0.06325 µM), 0.847; in assay [3] (first compound 0.2 µM), 0.957; in assay [4] (first compound 0.002 µM), 0.522; in assay [4] (first compound 0.006325 µM), 0.636; in assay [4] (first compound 0.02 µM), 0.659. For the same cell line, the relative viability in assay [4] (first compound 0.06325 µM) amounted to 0.674; in assay [4] (first compound 0.2 µM), 0.629.
